Experimental data as given in publication PMC4917279 (Journal of Medicinal Chemistry, 2016).

Columns and labels:
BRSK2 = molecular target: T1, BRSK2 (Homo sapiens, UniProt Q8IWQ3); experiment: KINOMEscan; assay type: binding; conditions: read-out: %Ctrl @ 1000 nM
T1 construct: purchased DiscoveRx KINOMEscan

SMYD2 = SMYD2 (Homo sapiens, UniProt Q9NRG4); experiment: Endogenous p53 methylation in KYSE-150 cells (Western blot); conditions: 5 days
YES = molecular target: T2, YES (Homo sapiens, UniProt P07947); experiment: KINOMEscan; assay type: binding; conditions: read-out: %Ctrl @ 1000 nM
T2 construct: purchased DiscoveRx KINOMEscan

PIP5K2C = molecular target: T3, PIP5K2C (Homo sapiens, UniProt Q8TBX8); experiment: KINOMEscan; assay type: binding; conditions: read-out: %Ctrl @ 1000 nM
T3 construct: purchased DiscoveRx KINOMEscan

ZAP70 = molecular target: T4, ZAP70 (Homo sapiens, UniProt P43403); experiment: KINOMEscan; assay type: binding; conditions: read-out: %Ctrl @ 1000 nM
T4 construct: purchased DiscoveRx

CSNK1G2 = molecular target: T5, CSNK1G2 (Homo sapiens, UniProt P78368); experiment: KINOMEscan; assay type: binding; conditions: read-out: %Ctrl @ 1000 nM
T5 construct: purchased DiscoveRx KINOMEscan

FGFR4 = molecular target: T6, FGFR4 (Homo sapiens, UniProt P22455); experiment: KINOMEscan; assay type: binding; conditions: read-out: %Ctrl @ 1000 nM
T6 construct: purchased DiscoveRx KINOMEscan

MLK1 = molecular target: T7, MLK1 (Homo sapiens, UniProt P80192); experiment: KINOMEscan; assay type: binding; conditions: read-out: %Ctrl @ 1000 nM
T7 construct: purchased DiscoveRx KINOMEscan

ACVR2B = molecular target: T8, ACVR2B (Homo sapiens, UniProt Q13705); experiment: KINOMEscan; assay type: binding; conditions: read-out: %Ctrl @ 1000 nM
T8 construct: purchased DiscoveRx

CAMK1G = molecular target: T9, CAMK1G (Homo sapiens, UniProt Q96NX5); experiment: KINOMEscan; assay type: binding; conditions: read-out: %Ctrl @ 1000 nM
T9 construct: purchased DiscoveRx KINOMEscan

TAK1 = molecular target: T10, TAK1 (Homo sapiens, UniProt O43318); experiment: KINOMEscan; assay type: binding; conditions: read-out: %Ctrl @ 1000 nM
T10 construct: purchased DiscoveRx KINOMEscan

CLK1 = molecular target: T11, CLK1 (Homo sapiens, UniProt P49759); experiment: KINOMEscan; assay type: binding; conditions: read-out: %Ctrl @ 1000 nM
T11 construct: purchased DiscoveRx KINOMEscan

LATS1 = molecular target: T12, LATS1 (Homo sapiens, UniProt O95835); experiment: KINOMEscan; assay type: binding; conditions: read-out: %Ctrl @ 1000 nM
T12 construct: purchased DiscoveRx KINOMEscan

GRK4 = molecular target: T13, GRK4 (Homo sapiens, UniProt P32298); experiment: KINOMEscan; assay type: binding; conditions: read-out: %Ctrl @ 1000 nM
T13 construct: purchased DiscoveRx KINOMEscan

DMPK = molecular target: T14, DMPK (Homo sapiens, UniProt Q09013); experiment: KINOMEscan; assay type: binding; conditions: read-out: %Ctrl @ 1000 nM
T14 construct: purchased DiscoveRx KINOMEscan

IKK-beta = molecular target: T15, IKK-beta (Homo sapiens, UniProt O14920); experiment: KINOMEscan; assay type: binding; conditions: read-out: %Ctrl @ 1000 nM
T15 construct: purchased DiscoveRx KINOMEscan

PHKG1 = molecular target: T16, PHKG1 (Homo sapiens, UniProt Q16816); experiment: KINOMEscan; assay type: binding; conditions: read-out: %Ctrl @ 1000 nM
T16 construct: purchased DiscoveRx KINOMEscan

MAP3K4 = molecular target: T17, MAP3K4 (Homo sapiens, UniProt Q9Y6R4); experiment: KINOMEscan; assay type: binding; conditions: read-out: %Ctrl @ 1000 nM
T17 construct: purchased DiscoveRx KINOMEscan

LKB1 = molecular target: T18, LKB1 (Homo sapiens, UniProt Q15831); experiment: KINOMEscan; assay type: binding; conditions: read-out: %Ctrl @ 1000 nM
T18 construct: purchased DiscoveRx KINOMEscan

[1] = molecular target: T19, ABL1(Q252H)-phosphorylated (Homo sapiens, UniProt P00519, Q252H); experiment: KINOMEscan; assay type: binding; conditions: read-out: %Ctrl @ 1000 nM
T19 construct: purchased DiscoveRx (KINOMEscan service)

NIK = molecular target: T20, NIK (Homo sapiens, UniProt Q99558); experiment: KINOMEscan; assay type: binding; conditions: read-out: %Ctrl @ 1000 nM
T20 construct: purchased DiscoveRx KINOMEscan

[2] = molecular target: T21, RSK2(Kin.Dom.2-C-terminal) (Homo sapiens, UniProt P51812); experiment: KINOMEscan; assay type: binding; conditions: read-out: %Ctrl @ 1000 nM
T21 construct: RSK2(Kin.Dom.2-C-terminal); purchased DiscoveRx KINOMEscan

FGFR1 = molecular target: T22, FGFR1 (Homo sapiens, UniProt P11362); experiment: KINOMEscan; assay type: binding; conditions: read-out: %Ctrl @ 1000 nM
T22 construct: purchased DiscoveRx KINOMEscan

CAMK2A = molecular target: T23, CAMK2A (Homo sapiens, UniProt Q9UQM7); experiment: KINOMEscan; assay type: binding; conditions: read-out: %Ctrl @ 1000 nM
T23 construct: purchased DiscoveRx KINOMEscan

OSR1 = molecular target: T24, OSR1 (Homo sapiens, UniProt O95747); experiment: KINOMEscan; assay type: binding; conditions: read-out: %Ctrl @ 1000 nM
T24 construct: purchased DiscoveRx KINOMEscan

PAK2 = molecular target: T25, PAK2 (Homo sapiens, UniProt Q13177); experiment: KINOMEscan; assay type: binding; conditions: read-out: %Ctrl @ 1000 nM
T25 construct: purchased DiscoveRx KINOMEscan

ICK = molecular target: T26, ICK (Homo sapiens, UniProt Q9UPZ9); experiment: KINOMEscan; assay type: binding; conditions: read-out: %Ctrl @ 1000 nM
T26 construct: purchased DiscoveRx KINOMEscan

PRP4 = molecular target: T27, PRP4 (Homo sapiens, UniProt Q13523); experiment: KINOMEscan; assay type: binding; conditions: read-out: %Ctrl @ 1000 nM
T27 construct: purchased DiscoveRx KINOMEscan
Protocol: (§1) 1.1. Table S1 KINOMEscan Data. The KINOMEscan was performed at DiscoveRx. For
(§2) a more detailed description of this assay technology, see: Fabian, M. A.; Biggs, W.
(§3) H., III; Treiber, D. K.; Atteridge, C. E.; Azimioara, M. D.; Benedetti, M. G.; Carter,
(§4) T. A.; Ciceri, P.; Edeen, P. T.; Floyd, M.; Ford, J. M.; Galvin, M.; Gerlach, J. L.;
(§5) Grotzfeld, R. M.; Herrgard, S.; Insko, D. E.; Insko, M. A.; Lai, A. G.; Lélias, J..M.;
(§6) Mehta, S. A.; Milanov, Z. V.; Velasco, A. M.; Wodicka, L. M.; Patel, H. K.;
(§7) Zarrinkar, P. P.; Lockhart, D. J. A small molecule–kinase interaction map for clinical
(§8) Target Gene Symbol %Ctrl @ 1000 nM BAY-598
(§9) ABL1(H396P)-nonphosphorylated 92
(§10) ABL1(Q252H)-nonphosphorylated 66
(§11) ABL1(T315I)-nonphosphorylated 77
(§12) ABL1-nonphosphorylated 79

CDC2L5 = molecular target: T28, CDC2L5 (Homo sapiens, UniProt Q14004); experiment: KINOMEscan; assay type: binding; conditions: read-out: %Ctrl @ 1000 nM
T28 construct: purchased DiscoveRx KINOMEscan
Protocol: as §1, §2, §3, §4, §5, §6, §7, §8, §9, §10, §11, §12

TTK = molecular target: T29, TTK (Homo sapiens, UniProt P33981); experiment: KINOMEscan; assay type: binding; conditions: read-out: %Ctrl @ 1000 nM
T29 construct: purchased DiscoveRx KINOMEscan

PAK6 = molecular target: T30, PAK6 (Homo sapiens, UniProt Q9NQU5); experiment: KINOMEscan; assay type: binding; conditions: read-out: %Ctrl @ 1000 nM
T30 construct: purchased DiscoveRx KINOMEscan

[3] = molecular target: T31, RSK2(Kin.Dom.1-N-terminal) (Homo sapiens, UniProt P51812); experiment: KINOMEscan; assay type: binding; conditions: read-out: %Ctrl @ 1000 nM
T31 construct: RSK2(Kin.Dom.1-N-terminal); purchased DiscoveRx KINOMEscan

ERBB3 = molecular target: T32, ERBB3 (Homo sapiens, UniProt P21860); experiment: KINOMEscan; assay type: binding; conditions: read-out: %Ctrl @ 1000 nM
T32 construct: purchased DiscoveRx KINOMEscan

PKN2 = molecular target: T33, PKN2 (Homo sapiens, UniProt Q16513); experiment: KINOMEscan; assay type: binding; conditions: read-out: %Ctrl @ 1000 nM
T33 construct: purchased DiscoveRx KINOMEscan

AURKC = molecular target: T34, AURKC (Homo sapiens, UniProt Q9UQB9); experiment: KINOMEscan; assay type: binding; conditions: read-out: %Ctrl @ 1000 nM
T34 construct: purchased DiscoveRx KINOMEscan

QSK = molecular target: T35, QSK (Homo sapiens, UniProt Q9Y2K2); experiment: KINOMEscan; assay type: binding; conditions: read-out: %Ctrl @ 1000 nM
T35 construct: purchased DiscoveRx KINOMEscan

CAMKK1 = molecular target: T36, CAMKK1 (Homo sapiens, UniProt Q8N5S9); experiment: KINOMEscan; assay type: binding; conditions: read-out: %Ctrl @ 1000 nM
T36 construct: purchased DiscoveRx KINOMEscan

T31 sequence (P51812 68-397 limits assumed): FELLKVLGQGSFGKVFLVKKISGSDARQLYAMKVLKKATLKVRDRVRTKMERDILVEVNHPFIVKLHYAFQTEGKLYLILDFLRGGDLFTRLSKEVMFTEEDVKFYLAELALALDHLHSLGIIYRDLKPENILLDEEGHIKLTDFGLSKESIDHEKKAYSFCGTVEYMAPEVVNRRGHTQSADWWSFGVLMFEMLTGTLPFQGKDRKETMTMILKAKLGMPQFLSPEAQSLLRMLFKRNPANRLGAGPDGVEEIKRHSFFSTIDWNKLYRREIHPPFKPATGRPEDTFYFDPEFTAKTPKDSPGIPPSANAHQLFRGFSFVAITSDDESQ
T24 sequence (O95747 whole entry): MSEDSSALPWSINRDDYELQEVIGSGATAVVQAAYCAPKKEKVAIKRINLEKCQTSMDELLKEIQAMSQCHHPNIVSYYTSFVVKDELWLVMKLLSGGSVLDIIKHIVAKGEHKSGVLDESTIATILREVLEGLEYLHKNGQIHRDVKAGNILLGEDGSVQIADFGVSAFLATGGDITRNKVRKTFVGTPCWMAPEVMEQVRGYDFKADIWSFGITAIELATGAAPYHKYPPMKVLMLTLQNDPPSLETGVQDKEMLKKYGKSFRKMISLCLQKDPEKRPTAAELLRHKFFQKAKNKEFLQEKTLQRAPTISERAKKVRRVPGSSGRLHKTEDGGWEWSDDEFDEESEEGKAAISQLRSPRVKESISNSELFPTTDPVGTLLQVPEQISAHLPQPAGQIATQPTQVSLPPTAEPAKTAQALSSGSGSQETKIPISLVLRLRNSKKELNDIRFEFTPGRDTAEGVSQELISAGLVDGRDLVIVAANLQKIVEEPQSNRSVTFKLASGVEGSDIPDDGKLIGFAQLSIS
T12 sequence (O95835 whole entry): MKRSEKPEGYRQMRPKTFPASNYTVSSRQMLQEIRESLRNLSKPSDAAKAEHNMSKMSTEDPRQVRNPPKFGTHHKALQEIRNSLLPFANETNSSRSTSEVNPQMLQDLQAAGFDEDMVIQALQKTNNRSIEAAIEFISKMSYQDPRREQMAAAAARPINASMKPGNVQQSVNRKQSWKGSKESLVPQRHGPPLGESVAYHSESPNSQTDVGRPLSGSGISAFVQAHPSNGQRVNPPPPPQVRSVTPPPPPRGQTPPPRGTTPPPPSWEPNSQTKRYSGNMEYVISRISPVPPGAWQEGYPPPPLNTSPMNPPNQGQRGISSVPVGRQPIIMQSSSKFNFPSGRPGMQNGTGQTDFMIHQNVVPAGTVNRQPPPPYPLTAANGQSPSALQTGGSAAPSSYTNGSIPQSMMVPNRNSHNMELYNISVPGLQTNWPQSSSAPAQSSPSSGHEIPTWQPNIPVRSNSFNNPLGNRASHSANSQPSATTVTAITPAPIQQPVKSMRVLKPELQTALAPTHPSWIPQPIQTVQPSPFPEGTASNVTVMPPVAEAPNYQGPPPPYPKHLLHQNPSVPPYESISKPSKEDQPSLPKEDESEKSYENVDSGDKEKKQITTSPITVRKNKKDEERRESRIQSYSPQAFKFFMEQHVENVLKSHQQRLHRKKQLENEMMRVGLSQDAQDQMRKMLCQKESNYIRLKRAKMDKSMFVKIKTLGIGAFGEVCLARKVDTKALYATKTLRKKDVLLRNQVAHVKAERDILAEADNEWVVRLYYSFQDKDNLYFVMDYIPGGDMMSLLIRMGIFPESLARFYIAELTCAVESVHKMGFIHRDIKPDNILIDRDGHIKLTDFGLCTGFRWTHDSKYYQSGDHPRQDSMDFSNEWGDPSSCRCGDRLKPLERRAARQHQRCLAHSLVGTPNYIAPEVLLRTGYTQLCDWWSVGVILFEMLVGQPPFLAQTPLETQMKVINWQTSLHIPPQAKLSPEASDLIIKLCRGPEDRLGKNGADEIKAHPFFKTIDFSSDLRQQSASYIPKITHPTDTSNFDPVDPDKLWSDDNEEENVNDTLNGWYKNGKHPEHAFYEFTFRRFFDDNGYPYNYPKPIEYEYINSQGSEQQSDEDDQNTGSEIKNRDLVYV
T15 sequence (O14920 whole entry): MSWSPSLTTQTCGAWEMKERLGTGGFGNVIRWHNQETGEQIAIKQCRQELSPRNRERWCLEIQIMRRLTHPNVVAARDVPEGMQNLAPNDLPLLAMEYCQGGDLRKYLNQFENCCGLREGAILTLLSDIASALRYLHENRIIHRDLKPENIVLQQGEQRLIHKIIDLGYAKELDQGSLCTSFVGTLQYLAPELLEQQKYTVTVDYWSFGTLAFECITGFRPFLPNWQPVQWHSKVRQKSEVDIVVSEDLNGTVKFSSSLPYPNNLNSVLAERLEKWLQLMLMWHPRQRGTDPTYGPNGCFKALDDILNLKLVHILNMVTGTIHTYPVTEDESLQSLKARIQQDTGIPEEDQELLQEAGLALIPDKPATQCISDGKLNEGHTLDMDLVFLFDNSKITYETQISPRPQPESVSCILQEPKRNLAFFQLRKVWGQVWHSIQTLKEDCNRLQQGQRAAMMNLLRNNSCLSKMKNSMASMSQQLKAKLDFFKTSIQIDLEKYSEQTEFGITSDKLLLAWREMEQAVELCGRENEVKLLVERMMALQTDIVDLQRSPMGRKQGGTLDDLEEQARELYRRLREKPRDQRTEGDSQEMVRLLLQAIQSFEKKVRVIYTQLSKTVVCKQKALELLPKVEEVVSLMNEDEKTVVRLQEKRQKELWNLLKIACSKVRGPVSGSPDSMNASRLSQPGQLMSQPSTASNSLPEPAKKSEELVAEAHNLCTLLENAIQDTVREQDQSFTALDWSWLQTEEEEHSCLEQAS
T26 sequence (Q9UPZ9 whole entry): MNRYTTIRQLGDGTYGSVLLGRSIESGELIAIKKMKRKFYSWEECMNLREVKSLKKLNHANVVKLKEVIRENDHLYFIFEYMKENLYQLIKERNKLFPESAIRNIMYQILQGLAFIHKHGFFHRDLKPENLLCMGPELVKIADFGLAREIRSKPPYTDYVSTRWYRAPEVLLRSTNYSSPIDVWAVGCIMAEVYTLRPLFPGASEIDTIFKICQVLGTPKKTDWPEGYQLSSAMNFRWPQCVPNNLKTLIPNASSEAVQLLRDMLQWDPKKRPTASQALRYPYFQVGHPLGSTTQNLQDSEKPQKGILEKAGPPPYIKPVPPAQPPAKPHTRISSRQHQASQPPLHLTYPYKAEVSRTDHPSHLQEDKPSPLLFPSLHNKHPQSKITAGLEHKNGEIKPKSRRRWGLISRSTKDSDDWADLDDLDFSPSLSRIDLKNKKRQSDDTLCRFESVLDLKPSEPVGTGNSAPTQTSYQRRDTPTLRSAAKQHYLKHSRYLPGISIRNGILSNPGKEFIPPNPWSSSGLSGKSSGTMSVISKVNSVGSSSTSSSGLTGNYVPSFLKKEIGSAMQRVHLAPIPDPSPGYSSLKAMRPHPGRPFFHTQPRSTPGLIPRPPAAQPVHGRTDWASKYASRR
T28 sequence (Q14004 whole entry): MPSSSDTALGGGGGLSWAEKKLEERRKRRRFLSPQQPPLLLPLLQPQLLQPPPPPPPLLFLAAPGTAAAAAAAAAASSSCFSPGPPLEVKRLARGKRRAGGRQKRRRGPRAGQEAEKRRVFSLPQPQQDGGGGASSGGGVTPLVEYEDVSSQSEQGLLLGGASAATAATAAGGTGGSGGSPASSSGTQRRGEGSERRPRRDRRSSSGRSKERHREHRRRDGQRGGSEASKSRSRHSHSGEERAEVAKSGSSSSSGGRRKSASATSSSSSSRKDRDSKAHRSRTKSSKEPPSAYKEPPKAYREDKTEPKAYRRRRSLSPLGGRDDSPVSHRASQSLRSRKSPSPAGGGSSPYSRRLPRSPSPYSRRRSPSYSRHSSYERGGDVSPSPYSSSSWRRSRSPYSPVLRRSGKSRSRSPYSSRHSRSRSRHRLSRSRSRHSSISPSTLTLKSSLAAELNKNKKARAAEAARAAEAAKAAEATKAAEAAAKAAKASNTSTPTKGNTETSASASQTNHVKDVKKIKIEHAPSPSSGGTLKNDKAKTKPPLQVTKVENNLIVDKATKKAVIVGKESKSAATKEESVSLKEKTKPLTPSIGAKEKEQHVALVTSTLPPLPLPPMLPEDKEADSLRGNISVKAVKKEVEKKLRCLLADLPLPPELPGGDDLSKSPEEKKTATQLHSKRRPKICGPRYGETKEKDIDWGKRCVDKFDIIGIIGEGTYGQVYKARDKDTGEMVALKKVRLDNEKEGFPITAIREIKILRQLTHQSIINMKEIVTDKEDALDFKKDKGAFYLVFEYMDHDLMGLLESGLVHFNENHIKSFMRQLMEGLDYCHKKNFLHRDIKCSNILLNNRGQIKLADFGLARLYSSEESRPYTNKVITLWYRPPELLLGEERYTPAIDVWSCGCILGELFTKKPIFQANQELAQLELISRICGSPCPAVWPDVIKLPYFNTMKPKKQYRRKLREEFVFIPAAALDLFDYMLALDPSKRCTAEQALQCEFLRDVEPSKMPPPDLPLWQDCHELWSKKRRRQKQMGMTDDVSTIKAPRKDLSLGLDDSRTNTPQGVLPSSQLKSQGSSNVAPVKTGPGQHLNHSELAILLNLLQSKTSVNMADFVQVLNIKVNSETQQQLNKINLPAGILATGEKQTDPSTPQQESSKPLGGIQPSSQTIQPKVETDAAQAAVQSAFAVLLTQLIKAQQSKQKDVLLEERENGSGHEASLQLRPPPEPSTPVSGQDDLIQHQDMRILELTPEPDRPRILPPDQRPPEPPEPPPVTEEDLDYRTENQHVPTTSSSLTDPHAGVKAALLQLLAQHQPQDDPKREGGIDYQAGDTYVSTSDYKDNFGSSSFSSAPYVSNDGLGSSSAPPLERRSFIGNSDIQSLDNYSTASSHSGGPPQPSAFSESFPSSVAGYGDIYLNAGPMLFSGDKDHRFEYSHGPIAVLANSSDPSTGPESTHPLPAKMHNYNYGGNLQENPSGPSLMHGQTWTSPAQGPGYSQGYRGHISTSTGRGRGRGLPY

## CCN(C(=O)CO)[C@H]1CN(/C(=N\C#N)Nc2cccc(OC(F)F)c2)N=C1c1ccc(Cl)c(Cl)c1 [(S)-4]
BRSK2
  remaining binding at 1 µM: 74%
SMYD2
  Endogenous p53 methylation: significant reduction of methylation
YES
  remaining binding at 1 µM: 100%
PIP5K2C
  remaining binding at 1 µM: 85%
ZAP70
  remaining binding at 1 µM: 100%
CSNK1G2
  remaining binding at 1 µM: 94%
FGFR4
  remaining binding at 1 µM: 71%
MLK1
  remaining binding at 1 µM: 100%
ACVR2B
  remaining binding at 1 µM: 100%
CAMK1G
  remaining binding at 1 µM: 98%
TAK1
  remaining binding at 1 µM: 100%
CLK1
  remaining binding at 1 µM: 78%
LATS1
  remaining binding at 1 µM: 90%
GRK4
  remaining binding at 1 µM: 98%
DMPK
  remaining binding at 1 µM: 100%
IKK-beta
  remaining binding at 1 µM: 100%
PHKG1
  remaining binding at 1 µM: 97%
MAP3K4
  remaining binding at 1 µM: 75%
LKB1
  remaining binding at 1 µM: 83%
[1]
  remaining binding at 1 µM: 100%
NIK
  remaining binding at 1 µM: 100%
[2]
  remaining binding at 1 µM: 100%
FGFR1
  remaining binding at 1 µM: 59%
CAMK2A
  remaining binding at 1 µM: 100%
OSR1
  remaining binding at 1 µM: 78%
PAK2
  remaining binding at 1 µM: 89%
ICK
  remaining binding at 1 µM: 99%
PRP4
  remaining binding at 1 µM: 90%
CDC2L5
  remaining binding at 1 µM: 81%
TTK
  remaining binding at 1 µM: 82%
PAK6
  remaining binding at 1 µM: 100%
[3]
  remaining binding at 1 µM: 99%
ERBB3
  remaining binding at 1 µM: 84%
PKN2
  remaining binding at 1 µM: 100%
AURKC
  remaining binding at 1 µM: 77%
QSK
  remaining binding at 1 µM: 94%
CAMKK1
  remaining binding at 1 µM: 84%
